Among the data in patent US7282592B2, “Resorcinol derivatives” (Warner-Lambert Company, priority 2000, dated 2007) are IC50 values, retold here.

This test addresses T1, human tyrosinase (Homo sapiens, UniProt P14679).
T1 construct: endogenous in cells; host or cells: SKMEL 188 human melanoma cell line (lysate)
T1 sequence (P14679 19-529): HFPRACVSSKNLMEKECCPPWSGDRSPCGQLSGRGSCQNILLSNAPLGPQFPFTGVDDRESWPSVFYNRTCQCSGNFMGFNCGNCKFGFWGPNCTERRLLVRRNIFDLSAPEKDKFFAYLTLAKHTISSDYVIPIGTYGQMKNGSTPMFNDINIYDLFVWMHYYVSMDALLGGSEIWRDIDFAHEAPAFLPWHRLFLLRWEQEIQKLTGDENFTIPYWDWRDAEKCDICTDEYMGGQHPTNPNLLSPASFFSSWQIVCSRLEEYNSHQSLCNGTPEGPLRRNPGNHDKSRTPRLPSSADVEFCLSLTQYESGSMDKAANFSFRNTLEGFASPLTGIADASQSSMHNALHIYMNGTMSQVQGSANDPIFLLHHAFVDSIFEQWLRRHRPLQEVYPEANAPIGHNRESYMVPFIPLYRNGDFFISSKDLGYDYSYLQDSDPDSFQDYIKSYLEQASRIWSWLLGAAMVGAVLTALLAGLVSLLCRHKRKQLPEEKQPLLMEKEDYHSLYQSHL
Kind of test: Tyrosinase (DOPA Oxidase) Assay Using Cell Lysate. The class given is biochemical. To be noted: SKMEL 188 human melanoma cell lysates, L-DOPA 100 μg/ml, incubated 8 hrs, read at 405 nm. The procedure:
1. Tyrosinase (DOPA Oxidase) Assay Using Cell Lysate
Human melanoma cell line, SKMEL 188 (licensed from Memorial Sloan-Kettering), is used in the cell lysate assay and the screen. In the assay, compounds and L-dihydroxyphenylalanine (L-DOPA) (100 μg/ml) are incubated with the cell lysates containing human tyrosinase for 8 hrs before the plates are read at 405 nm.

`Cc1ccc(S(=O)(=O)N[C@H]2CC[C@H](c3ccc(O)cc3O)CC2)cc1` [Example 14, N-[trans-4-(2,4-Dihydroxyphenyl)cyclohexyl]-4-methylbenzenesulfonamide] displayed an IC50 of around 4 µM.
